Assay results as given in patent US8324151B2, “Treatment of sepsis and septic shock using ghrelin and growth hormone” (The Feinstein Institute for Medical Research, priority 2007, dated 2012).
Ends that are not written are not given here. * marks the point of attachment. Octanoyl = CCCCCCCC(=O)*

Columns and labels:
[1] = system: 24-month-old (aged) rats with LPS injection; assay: LPS-induced endotoxemia in aged rats treated with GH with or without ghrelin; format: in vivo, rat; conditions: 4 h after LPS 15 mg/kg BW, ghrelin 20 nmol/kg BW and/or GH 25 μg/kg BW bolus 30 min prior to LPS
Protocol: To determine whether GH sensitizes Ghrelin's anti-inflammatory effects, GH was administered (25 μg/kg BW, a bolus at 30 min prior to LPS injection) with or without ghrelin (20 nmol/kg BW, a bolus at 30 min prior to LPS injection) in 24-month-old (aged) rats with LPS injection (15 mg/kg BW). […] Similarly, organ injury indicators such as AST and ALT were attenuated only following co-administration of ghrelin and GH after LPS injection in aged animals (FIG. 9C-D).

brain ghrelin receptor = assay: Effect of GH on central ghrelin receptor expression and parasympathetic neuronal activity; format: in vivo; conditions: no data given
[2] = system: rats exposed to whole body irradiation followed by CLP; assay: Radiation combined injury (RCI): 5-Gy whole body irradiation followed by CLP; format: in vivo, rat
Protocol: Rats were exposed to 5-Gy whole body irradiation followed by cecal ligation and puncture (CLP) 48 h thereafter. Human ghrelin (30 nmol) or vehicle (saline) was infused for 68 h after radiation exposure. At 20 h post-CLP, circulating tissue injury markers were measured. A 10-day survival study was also performed.

[3] = system: male 3-month-old (young) rats subjected to sepsis by CLP; format: in vivo
Protocol: Protective effects of ghrelin in young septic animals: This study was designed to determine whether ghrelin by itself can attenuate sepsis-induced inflammatory responses, cardiovascular responses, tissue injury, and mortality in young animals. To study this, male 3-month-old (young) rats were subjected to sepsis by CLP. At 5 h after CLP, a bolus IV injection of ghrelin (6 nmol/kg BW) was followed by a continuous infusion of ghrelin (40 nmol/kg BW) via a primed 200-μl Alzet mini-pump for 15 h. 20 h after CLP (i.e., severe sepsis), plasma levels of TNF-α, IL-6, and HMGB-1 were determined. Cardiac output (CO), stoke volume (SV), total peripheral resistance (TPR), and organ blood flow (BF) were measured using radioactive microspheres. Moreover, tissue injury indicators such as plasma levels of lactate and creatinine, as well as lung water content (edema) were determined. In additional groups of animals, the necrotic cecum was excised at 20 h after CLP, and a 10-day survival was recorded. […] Thus, ghrelin may provide a novel approach for anti-sepsis therapy in the young population. […] This also confirms that ghrelin can cross the blood-brain barrier to produce its beneficial effect centrally, thus reducing proinflammatory cytokines in sepsis. […] Plasma levels of TNF-α were measured at 1 h after LPS injection. […] However, due to the presence of central ghrelin hyporesponsiveness in aged animals, it is most likely that treatment with ghrelin alone will not produce desirable beneficial results in the geriatric population.

[4] = system: male 3-month-old (young) rats subjected to sepsis by CLP; conditions: sepsis in young animals; Wu et al., 2004; cited from earlier work
[5] = system: young rats with LPS injection; assay: ICV administration of ghrelin prior to IV LPS injection (endotoxemia); conditions: ghrelin 3 nmol/kg BW ICV 30 min prior to IV LPS 15 mg/kg BW; 1 h after LPS
[6] = 20 h after CLP, ghrelin 6 nmol/kg BW IV bolus at 5 h + 40 nmol/kg BW infusion for 15 h
[7] = 20 h after CLP, radioactive microspheres
[8] = plasma, 20 h post-CLP, human ghrelin 30 nmol infused for 68 h after radiation, Mean ± SE, n = 4-6/group

## GH: Growth hormone; a ghrelin-sensitizing agent; preferred human forms SEQ ID NO:2-4
[1]
  plasma levels of IL-6: neither ghrelin nor GH alone significantly decreased
  plasma levels of TNF-α: neither ghrelin nor GH alone significantly decreased
Brain ghrelin receptor; aged animals (heading of b67)
  brain ghrelin receptor expression: increases
Brain ghrelin receptor
  parasympathetic neuronal activity: increases

## Human ghrelin: Human ghrelin; preferably GSSFLSPEHQRVQQRKESKKPPAKLQPR, S at position 3 n-octanoylated serine (SEQ ID NO:1) (GSS(Octanoyl)FLSPEHQRVQQRKESKKPPAKLQPR; listed as Homo sapiens)
[2]; 10-day survival after RCI, vehicle 38%
  survival: 69%
[2]; vs. RCI + vehicle, 20 h post-CLP
  decrease of the elevated injury markers in plasma: 41-59%

## ghrelin: Endogenous ligand for the growth hormone secretagogue receptor; species form used in the LPS and CLP studies not stated (GSSFLSPEHQRVQQRKESKKPPAKLQPR; ends and bridges not checked; UniProt Q9UBU3 24-51, looked up)
[1]
  plasma levels of IL-6: neither ghrelin nor GH alone significantly decreased
  plasma levels of TNF-α: neither ghrelin nor GH alone significantly decreased
[3]; 10-day survival, necrotic cecum excised at 20 h after CLP, control 35%, n=20/group
  survival of septic animals: 65%
[3]; 20 h after CLP
  lung edema (lung water content): decreased
  plasma creatinine: decreased
  plasma lactate: decreased
[3]; 20 h after CLP, data not shown
  cytokine levels in peritoneal fluid: markedly reduced
[3]; [6]
  plasma levels of HMGB-1: significantly reduced
  plasma levels of IL-6: significantly reduced
  plasma levels of TNF-α: significantly reduced
[3]; [7]
  cardiac output (CO): increased
  organ blood flow in the gut: increased
  organ blood flow in the kidneys: increased
  organ blood flow in the liver: increased
  stroke volume (SV): increased
  total peripheral resistance (TPR): reduced
[3]; rat, in vivo, iv
  brain ghrelin levels: restored the reduced brain ghrelin levels
[2]; 20 h post-CLP, human ghrelin 30 nmol infused for 68 h after radiation, Mean ± SE, n = 4-6/group
  Gut MPO: 14.0 ± 1.1 μU/mg
[2]; [8]
  ALT: 42.3 ± 5.4 IU/L
  AST: 70.7 ± 70.3 IU/L
  Creatinine: 1.60 ± 0.20 mg/dL
  IL-6: 817 ± 88 pg/mL
  LDH: 1098 ± 88 U/L
  Lactate: 19.4 ± 0.8 mg/dL
  TNF-α: 41.8 ± 8.5 pg/mL
[4]
  circulating proinflammatory cytokines such as TNF-α and IL-6: significantly decreases
[5]
  reduction of serum levels of TNF-α: 65%
